Marks after values point to notes of the source that are not given here.
How the values were obtained:
[1] = tested on: T. cruzi cells (Y strain, DTU Tc II); experiment: 1H-NMR study of the excreted metabolites; format: cell-based, Trypanosoma cruzi
Description: To gain insight into the changes promoted by the active 3-propylidene[1,2]dithioles 2 and 14 in some biochemical pathways, the metabolites excreted by the parasite using ^1H-NMR spectroscopy were analyzed. Changes in the excreted metabolites by T. cruzi Y strain (DTU Tc II, [24]), when the parasite cells were exposed to a bioactive compound, could be indicative of the modification of the biochemical pathway(s) by the agents. Spectra of the cell-free milieu of treated parasites were compared with those of the untreated T. cruzi-free milieu as the control. We focused mainly on the changes of excreted salts of the carboxylic acids, lactate (Lac), acetate (Ace), pyruvate (Pyr), and succinate (Succ) and the amino acids, alanine (Ala) and glycine (Gly), among the most relevant modified metabolites.
For the ^1H-NMR spectroscopic studies, T. cruzi cells (Y strain, DTU Tc II) treated for 2 days, with each studied compound at concentrations corresponding to 2 × IC50 values (5 mL) were centrifuged at 1500× g for 10 min at 4 °C. The pellet was discarded, and the parasite-free supernatant was stored at −20 °C until use. Before measuring, DMF (0.1 mL, 10 mM) as the internal standard and D2O (0.1 mL) were added to the supernatant (0.3 mL). ^1H-NMR experiments were recorded at 20 °C on a Bruker Advance DPX-400 spectrometer (Bruker), operating at 400.132 MHz, with a 5 mm broadband inverse geometry probe. The acquisition parameters included: 90° pulse (zgpr, advance-version v 1.7.10.2, 1D sequence with f1 presaturation), 128 scans, and spectral width of 14.983 ppm. The acquisition time was 1.3664 s. Signal intensities were calculated by performing appropriate baseline corrections and then integrating the area under each of the resonances using MestRe-C NMR software. Spectra were analyzed using the Topspin 1.3 software package. The spectra were registered with water suppression in 5 mm NMR (Aldrich, St. Louis, MO, USA) sample tubes. The chemical displacements used to identify the respective metabolites were previously confirmed by adding each analyzed metabolite to the studied supernatant, as well as by the study of a control solution with 4 μg/mL of each metabolite in buffer (phosphate, pH = 7.4). Each run was done at least in triplicate and the Student t test was used to analyze the significance of the changes. […]

[2] = tested on: membrane sterol biosynthesis in epimastigotes of Y strain of T. cruzi; experiment: Inhibition of membrane sterol biosynthesis (qualitative TLC); format: cell-based, Trypanosoma cruzi; conditions: compounds at their IC50, 72 h, 28 °C, compared to control
Description: To do so, we analyzed the accumulation or depletion of some intermediates or final products of this biochemical pathway. Qualitative analyses were performed by thin layer chromatography (TLC).
The parasites, epimastigotes of Y strain of T. cruzi (DTU Tc II), were grown in 6 mL of BHT milieu in culture bottles. […] A negative control was performed with parasites in the absence of compounds. […] The extraction of membrane sterols was performed on completion of the incubation. For this purpose, the content of the culture bottle was centrifuged at 3000 rpm for 10 min, the supernatant was discarded and the pellet was suspended in sodium phosphate buffer solution (6 mL, 0.05 M, pH 7.4). Then it was centrifuged again at 3000 rpm for 10 min and the supernatant was discarded. The resulting pellet was resuspended in a chloroform/methanol (2:1) mixture (5 mL) and the suspension was kept at 4 °C for 12 h. Then, a saturated NaCl solution (5 mL) was added and the mixture extracted once with chloroform (3 mL) and once with hexane (3 mL) with care to avoid taking any aqueous phase. The extracted volume was applied to a silica gel TLC plate. Chromatography was performed eluting with hexane, two runs to identify squalene, and once with hexane/EtOAc (8:2) for ergosterol. […] Also, controls and commercial samples of ergosterol, lanosterol, cholesterol and squalene were run on the TLC plate. […]

[3] = IC50 × 2, 2 days, DMF internal standard

Compound: CC(=O)COc1ccc(C2=C/C(=C(\SCC(C)=O)C(C)=O)SS2)cc1 [Derivative 2]
- Concentration of excreted Ace [1, 3]: 23.28 ± 0.86
- Concentration of excreted Ala [1, 3]: 17.76 ± 0.61
- Concentration of excreted Gly [1, 3]: 2.11 ± 0.11 ^c
- Concentration of excreted Lac [1, 3]: 8.73 ± 0.37
- Concentration of excreted Pyr [1, 3]: 8.00 ± 0.35
- Concentration of excreted Succ [1, 3]: 5.83 ± 0.24
- Change of excreted metabolites compared to the control ([1]; IC50 × 2, p < 0.05 Student's t-test): significantly decreased the levels of excreted Gly and Pyr
- Changes in membrane sterols and intermediates (squalene, ergosterol) [2]: accumulate squalene and deplete ergosterol
